Source: PubChem BioAssay AID248 (DTP/NCI, 2004)
Several values for one entry are separate records, joined by “and”; a condition that tells them apart may be missing. Equal values may be shown once. Inconclusive results and toxic doses are left out. Cut-off read from the data, not from the text of the source: active = T/C of 150% or more; inactive = T/C below 125%.

System: L1210 leukemia ip in BDF1 mice, survival T/C
Test: NCI In Vivo Anticancer Drug Screen. Data for tumor model L1210 Leukemia (intraperitoneal) in B6D2F1 (BDF1) mice
Conditions: endpoint: mean survival time, higher = longer survival
In short: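 Mice bearing the transplanted tumor received compound or vehicle. Survival of the treated group was divided by that of the vehicle-treated control group to give the ratio.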

[1] = dose: 100.0 mg/kg/injection, schedule: Q04DX003 (ip), vehicle: saline with Tween-80
[2] = dose: 100.0 mg/kg/injection, schedule: Q04DX003 (ip), vehicle: saline
[3] = dose: 200.0 mg/kg/injection, schedule: Q04DX003 (ip), vehicle: saline with Tween-80
[4] = dose: 12.5 mg/kg/injection, schedule: Q04DX003 (ip), vehicle: saline
[5] = dose: 100.0 mg/kg/injection, schedule: Q04DX003 (ip), vehicle: Klucel (hydroxypropylcellulose) (HPC)
[6] = dose: 200.0 mg/kg/injection, schedule: Q04DX003 (ip), vehicle: Klucel (hydroxypropylcellulose) (HPC)
[7] = dose: 400.0 mg/kg/injection, schedule: Q04DX003 (ip), vehicle: Klucel (hydroxypropylcellulose) (HPC)
[8] = dose: 100.0 mg/kg/injection, schedule: Q01DX001 (ip), vehicle: saline
[9] = dose: 200.0 mg/kg/injection, schedule: Q01DX001 (ip), vehicle: saline
[10] = dose: 400.0 mg/kg/injection, schedule: Q01DX001 (ip), vehicle: saline

Measured: T/C

COC(=O)NC1CC(OC(=O)c2ccc(C)cc2)C(COC(=O)c2ccc(C)cc2)O1 (configuration not stated)
inactive: dose: 50.0 mg/kg/injection, schedule: Q04DX003 (ip), vehicle: saline with Tween-80 96 % of control | dose: 66.0 mg/kg/injection, schedule: Q04DX003 (ip), vehicle: saline 94 % of control | [1] 97 % of control | [2] 100 % of control | dose: 150.0 mg/kg/injection, schedule: Q04DX003 (ip), vehicle: saline 95 % of control | [3] 100 % of control | dose: 225.0 mg/kg/injection, schedule: Q04DX003 (ip), vehicle: saline 95 % of control | dose: 337.0 mg/kg/injection, schedule: Q04DX003 (ip), vehicle: saline 103 % of control | dose: 400.0 mg/kg/injection, schedule: Q04DX003 (ip), vehicle: saline with Tween-80 96 % of control

[Cu+2].[NH-]C(CC(N)=O)C(=O)O.[NH-]C(CC(N)=O)C(=O)O (configuration not stated)
inactive: dose: 12.5 mg/kg/injection, schedule: Q01DX009 (ip), vehicle: saline 107 % of control | [4] 92 % of control | dose: 25.0 mg/kg/injection, schedule: Q01DX009 (ip), vehicle: saline 98 % of control | dose: 25.0 mg/kg/injection, schedule: Q04DX003 (ip), vehicle: saline 94 % of control | dose: 50.0 mg/kg/injection, schedule: Q04DX003 (ip), vehicle: saline 87 % of control

C#CCNc1ccc(C(=O)OCC)cc1
inactive: dose: 100.0 mg/kg/injection, schedule: Q04DX002 (ip), vehicle: gum acacia 99 % of control | dose: 200.0 mg/kg/injection, schedule: Q04DX002 (ip), vehicle: gum acacia 108 % of control | dose: 400.0 mg/kg/injection, schedule: Q04DX002 (ip), vehicle: gum acacia 92 % of control

Cc1cc(-c2ccccc2)c(-c2ccccn2)c2ccccc12
inactive: [5] 96 % of control | [6] 91 % of control | [7] 86 % of control

c1ccc([P+](c2ccccc2)(c2ccccc2)c2ccc([P+](c3ccccc3)(c3ccccc3)c3ccccc3)cc2)cc1
inactive: dose: 3.13 mg/kg/injection, schedule: Q04DX003 (ip), vehicle: saline 106 % of control | dose: 6.25 mg/kg/injection, schedule: Q04DX003 (ip), vehicle: saline 109 % of control | [4] 93 % of control and 102 % of control

CC(=O)N(C)c1ccc(NC(=O)Nc2cc([N+](=O)[O-])ccc2F)cc1
inactive: [5] 91 % of control | [6] 97 % of control | [7] 92 % of control

CCCCCCC(C(C(C)=O)C(C)=O)C(C(C)=O)C(C)=O
inactive: [1] 91 % of control | [3] 93 % of control

C/C=C/C=C/C(=O)N(C)c1ccccc1
inactive: dose: 50.0 mg/kg/injection, schedule: Q01DX001 (ip), vehicle: carboxymethylcellulose (CMC) 111 % of control | dose: 100.0 mg/kg/injection, schedule: Q01DX001 (ip), vehicle: carboxymethylcellulose (CMC) 103 % of control | dose: 200.0 mg/kg/injection, schedule: Q01DX001 (ip), vehicle: carboxymethylcellulose (CMC) 103 % of control | dose: 400.0 mg/kg/injection, schedule: Q01DX001 (ip), vehicle: carboxymethylcellulose (CMC) 100 % of control

CNCCc1ccc(O)cc1
inactive: [8] 104 % of control | [9] 102 % of control | [10] 104 % of control

CC1CCCN(C(=O)Nc2ccccc2)C1 (configuration not stated)
inactive: dose: 100.0 mg/kg/injection, schedule: Q04DX002 (ip), vehicle: saline 104 % of control | dose: 200.0 mg/kg/injection, schedule: Q04DX002 (ip), vehicle: saline 115 % of control | dose: 400.0 mg/kg/injection, schedule: Q04DX002 (ip), vehicle: saline 96 % of control

NC(=O)Nc1ccc(SCC(=O)O)cc1
inactive: dose: 100.0 mg/kg/injection, schedule: Q04DX002 (ip), vehicle: Klucel (hydroxypropylcellulose) (HPC) 106 % of control | dose: 200.0 mg/kg/injection, schedule: Q04DX002 (ip), vehicle: Klucel (hydroxypropylcellulose) (HPC) 95 % of control | dose: 400.0 mg/kg/injection, schedule: Q04DX002 (ip), vehicle: Klucel (hydroxypropylcellulose) (HPC) 113 % of control

CCCC(O)(CCC)CC1=NC(C)(C)CO1
inactive: dose: 100.0 mg/kg/injection, schedule: Q04DX003 (ip), vehicle: saline sonified 87 % of control | dose: 200.0 mg/kg/injection, schedule: Q04DX003 (ip), vehicle: saline sonified 98 % of control | dose: 400.0 mg/kg/injection, schedule: Q04DX003 (ip), vehicle: saline sonified 95 % of control

OC(C(c1ccccc1)N1CCOCC1)C(O)(c1ccccc1)c1ccccc1 (configuration not stated)
inactive: [8] 106 % of control | [9] 94 % of control | [10] 97 % of control

N#Cc1c(F)c(F)c(Oc2c(F)c(F)c(F)c(Oc3c(F)c(F)c(C#N)c(F)c3F)c2F)c(F)c1F
inactive: dose: 100.0 mg/kg/injection, schedule: Q01DX009 (ip), vehicle: other 103 % of control | dose: 100.0 mg/kg/injection, schedule: Q04DX003 (ip), vehicle: other 100 % of control | dose: 200.0 mg/kg/injection, schedule: Q01DX009 (ip), vehicle: other 100 % of control | dose: 200.0 mg/kg/injection, schedule: Q04DX003 (ip), vehicle: other 97 % of control and 100 % of control | dose: 400.0 mg/kg/injection, schedule: Q04DX003 (ip), vehicle: other 86 % of control

CC(C)[N+](=O)[O-]
inactive: dose: 62.5 mg/kg/injection, schedule: Q01DX001 (ip), vehicle: Klucel (hydroxypropylcellulose) (HPC) 104 % of control | dose: 125.0 mg/kg/injection, schedule: Q01DX001 (ip), vehicle: Klucel (hydroxypropylcellulose) (HPC) 114 % of control | dose: 250.0 mg/kg/injection, schedule: Q01DX001 (ip), vehicle: Klucel (hydroxypropylcellulose) (HPC) 101 % of control

Cc1nnc2sc(C(=O)O)nn12
inactive: [8] 90 % of control | [9] 93 % of control | [10] 96 % of control

O=CNNc1ccccc1
inactive: dose: 75.0 mg/kg/injection, schedule: Q01DX001 (ip), vehicle: acetone 98 % of control | [5] 106 % of control | dose: 150.0 mg/kg/injection, schedule: Q01DX001 (ip), vehicle: acetone 100 % of control | [6] 95 % of control | dose: 300.0 mg/kg/injection, schedule: Q01DX001 (ip), vehicle: acetone 96 % of control

CC(=O)OCC(=O)[C@@]1(O)CC[C@H]2[C@@H]3CCC4=CC(=O)C=C[C@]4(C)[C@H]3C(=O)C[C@@]21C
inactive: dose: 12.5 mg/kg/injection, schedule: Q01DX009 (ip), vehicle: Klucel (hydroxypropylcellulose) (HPC) 93 % of control | dose: 25.0 mg/kg/injection, schedule: Q01DX009 (ip), vehicle: Klucel (hydroxypropylcellulose) (HPC) 98 % of control | dose: 50.0 mg/kg/injection, schedule: Q01DX009 (ip), vehicle: Klucel (hydroxypropylcellulose) (HPC) 103 % of control | dose: 75.0 mg/kg/injection, schedule: Q01DX009 (ip), vehicle: Klucel (hydroxypropylcellulose) (HPC) 100 % of control | dose: 115.0 mg/kg/injection, schedule: Q01DX009 (ip), vehicle: Klucel (hydroxypropylcellulose) (HPC) 98 % of control | dose: 170.0 mg/kg/injection, schedule: Q01DX009 (ip), vehicle: Klucel (hydroxypropylcellulose) (HPC) 103 % of control | dose: 255.0 mg/kg/injection, schedule: Q01DX009 (ip), vehicle: Klucel (hydroxypropylcellulose) (HPC) 86 % of control

CCOc1ccccc1/C=C1\C=C(CC)SC1=O
inactive: dose: 100.0 mg/kg/injection, schedule: Q01DX001 (ip), vehicle: saline with Tween-80 91 % of control | dose: 200.0 mg/kg/injection, schedule: Q01DX001 (ip), vehicle: saline with Tween-80 94 % of control | dose: 400.0 mg/kg/injection, schedule: Q01DX001 (ip), vehicle: saline with Tween-80 91 % of control

c1ccc2c(OCC3CO3)cccc2c1 (configuration not stated)
inactive: dose: 50.0 mg/kg/injection, schedule: Q01DX001 (ip), vehicle: other 94 % of control | dose: 100.0 mg/kg/injection, schedule: Q01DX001 (ip), vehicle: other 94 % of control | dose: 200.0 mg/kg/injection, schedule: Q01DX001 (ip), vehicle: other 94 % of control | dose: 400.0 mg/kg/injection, schedule: Q01DX001 (ip), vehicle: other 111 % of control

CCOC(=O)N1NC(=O)CC1(C)C
inactive: [2] 105 % of control | dose: 200.0 mg/kg/injection, schedule: Q04DX003 (ip), vehicle: saline 105 % of control | dose: 400.0 mg/kg/injection, schedule: Q04DX003 (ip), vehicle: saline 102 % of control

CC(Br)C(=O)NCC(=O)O (configuration not stated)
inactive: dose: 100.0 mg/kg/injection, schedule: Q01DX009 (ip), vehicle: saline with Tween-80 93 % of control | dose: 200.0 mg/kg/injection, schedule: Q01DX009 (ip), vehicle: saline with Tween-80 92 % of control
